Reference: US7732464B2, “Heterocyclic substituted 4-(aminomethyl)-piperidine benzamides as 5HT4-antagonists” (Janssen Pharmaceutica, N.V., priority 2003, dated 2010)
Structures can show the parent of a compound that is named as a salt.

Columns and labels:
[1] = Metabolic stability: incubation with liver microsomes and NADPH-generating system, LC-MS analysis; format: in vitro ADME; conditions: compound 5 μM; microsomes 1 mg/ml; NADPH-generating system; 60 minutes at 37 degrees Celsius
Description: Sub-cellular tissue preparations were made according to Gorrod et al. (Xenobiotica 5: 453-462, 1975) by centrifugal separation after mechanical homogenization of tissue. Liver tissue was rinsed in ice-cold 0.1 M Tris-HCl (pH 7.4) buffer to wash excess blood. Tissue was then blotted dry, weighed and chopped coarsely using surgical scissors. The tissue pieces were homogenized in 3 volumes of ice-cold 0.1 M phosphate buffer (pH 7.4).
Tissue homogenates were centrifuged at 9000×g for 20 minutes at 4° C. The resulting supernatant was stored at −80° C. and is designated ‘S9’.
The S9 fraction can be further centrifuged at 100.000×g for 60 minutes (4° C.). The resulting supernatant was carefully aspirated, aliquoted and designated ‘cytosol’. The pellet was re-suspended in 0.1 M phosphate buffer (pH 7.4) in a final volume of 1 ml per 0.5 g original tissue weight and designated ‘microsomes’.
All sub-cellular fractions were aliquoted, immediately frozen in liquid nitrogen and stored at −80° C. until use.
For the samples to be tested, the incubation mixture contained PBS (0.1M), compound (5 μM), microsomes (1 mg/ml) and a NADPH-generating system (0.8 mM glucose-6-phosphate, 0.8 mM magnesium chloride and 0.8 Units of glucose-6-phosphate dehydrogenase). Control samples contained the same material but the microsomes were replaced by heat inactivated (10 minutes at 95 degrees Celsius) microsomes. Recovery of the compounds in the control samples was always 100%.
The mixtures were preincubated for 5 minutes at 37 degrees Celsius. The reaction was started at time point zero (t=0) by addition of 0.8 mM NADP and the samples were incubated for 60 minutes (t=60). The reaction was terminated by the addition of 2 volumes of DMSO. Then the samples were centrifuged for 10 minutes at 900×g and the supernatants were stored at room temperature for no longer as 24 hours before analysis. All incubations were performed in duplo. Analysis of the supernatants was performed with LC-MS analysis. Elution of the samples was performed on a Xterra MS C18 (50×4.6 mm, 5 μm, Waters, US). An Alliance 2790 (Supplier: Waters, US) HPLC system was used. Elution was with buffer A (25 mM ammoniumacetate (pH 5.2) in H2O/acetonitrile (95/5)), solvent B being acetonitrile and solvent C methanol at a flow rate of 2.4 ml/min. The gradient employed was increasing the organic phase concentration from 0% over 50% B and 50% C in 5 min up to 100% B in 1 minute in a linear fashion and organic phase concentration was kept stationary for an additional 1.5 minutes. Total injection volume of the samples was 25 μl.
A Quatro triple quadrupole mass spectrometer fitted with and ESP source was used as detector. The source and the desolvation temperature were set at 120 and 350° C. respectively and nitrogen was used as nebuliser and drying gas. Data were acquired in positive scan mode (single ion reaction). Cone voltage was set at 10 V and the dwell time was 1 second.
Metabolic stability was expressed as % metabolism of the compound after 60 minutes (equation given as Example) of incubation in the presence of active microsomes E(act))

[2] = target: T1, h5-HT4b (Homo sapiens, UniProt Q13639); assay: 5HT4 antagonism: [3H]GR113808 binding to membranes of h5-HT4b-HEK 293 clone 9 cells; conditions: displacement of [3H]GR113808 0.1 nM; h5-HT4b-HEK 293 membranes; 30 min at 25° C.; read-out: pIC50 (5HT4 antagonistic data) (converted)
T1 construct: expressed in transfected cells; host or cells: HEK 293 (clone 9), membrane preparation
Description: h5-HT4b-HEK 293 clone 9 cells were cultured in 150 mm Petri dishes and washed twice with cold PBS. The cells were then scraped from the plates and suspended in 50 mM Tris-HCl buffer, pH 7.4 and harvested by centrifugation at 23,500 rpm for 10 minutes. The pellet was resuspended in 5 mM Tris-HCl, pH 7.4 and homogenized with an Ultra Turrax homogenizer. The membranes were collected by centrifugation at 30,000 rpm for 20 min, resuspended in 50 mM Tris-HCl pH 7.4 and stored at −80° C. For the experiment, assay mixtures (0.5 ml) contained 50 μl of the tritiated ligand (5-HT4 antagonist [^3H]GR113808 0.1 nM) and 0.4 ml membrane preparation (15 μg protein/ml). 50 μl of 10% DMSO was added for total binding. 50 μl of 1 μM of (+)-trans-(1-butyl-3-hydroxy-4-piperidinyl)methyl 8-amino-7-chloro-2,3-dihydro-1,4-benzodioxin-5-carboxylate (a proprietary 5HT4 agonist of Janssen Pharmaceutica) was added for determination of non-specific binding.
The [^3H]GR113808 assay buffer was 50 mM HEPES-NaOH, pH 7.4. The mixtures were incubated for 30 min at 25° C. The incubation was terminated by filtration over a Unifilter 96 GF/B presoaked in 0.1% polyethylenimine, followed by six washing steps with 50 mM HEPES-NaOH, pH 7.4.

T1 sequence (Q13639 whole entry): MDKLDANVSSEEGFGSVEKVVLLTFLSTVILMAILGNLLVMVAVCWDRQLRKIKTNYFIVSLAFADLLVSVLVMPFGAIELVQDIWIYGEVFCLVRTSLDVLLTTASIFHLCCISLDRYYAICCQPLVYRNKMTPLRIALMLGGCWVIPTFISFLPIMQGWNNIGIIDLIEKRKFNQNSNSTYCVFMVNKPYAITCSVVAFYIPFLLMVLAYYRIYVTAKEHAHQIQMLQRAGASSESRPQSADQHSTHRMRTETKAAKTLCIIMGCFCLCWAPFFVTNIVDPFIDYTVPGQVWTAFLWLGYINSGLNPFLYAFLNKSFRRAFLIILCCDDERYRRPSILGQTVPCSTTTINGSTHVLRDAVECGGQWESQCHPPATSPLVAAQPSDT

## O=C(NCC1CCN(CCCc2nnn[nH]2)CC1O)c1cc(Cl)cc2c1OCCCO2 (centres unmarked) (as salt: HCl) [Compound 7]
other
  melting point: 212 °C

## Cc1cc2c(c(C(=O)NC[C@@H]3CCN(CCCc4cc(O)no4)C[C@H]3O)c1)OCCCO2 (hydrate or solvate) [Compound 23]
other
  melting point: > 93 °C

## Cc1cc2c(c(C(=O)NCC3CCN(CCCN4CC(=O)NC4=O)CC3O)c1)OCCCO2 (centres unmarked) (hydrate or solvate) [Compound 24]
other
  melting point: 135 °C

## O=C1CN(CCCN2CC[C@@H](CNC(=O)c3cc(Cl)cc4c3OCCCO4)[C@H](O)C2)C(=O)N1 (relative stereo) [Compound 21]
[1]
  % metabolised compound after 60 minutes: 30.5%
[2]
  IC50: 0.00646 µM

## CO[C@@H]1CN(CCCCn2ccc(O)n2)CC[C@H]1CNC(=O)c1cc(Cl)c(Br)c2c1OCCCO2 (relative stereo) [Compound 30]
[2]
  IC50: 0.001 µM

## COc1ccc(C(=O)NC[C@@H]2CCN(CCCCn3ccc(O)n3)C[C@H]2O)c2c1OCCO2 [Compound 1]
[1]
  % metabolised compound after 60 minutes: 5%
[2]
  IC50: 0.0024 µM

## Cc1cc2c(c(C(=O)NC[C@@H]3CCN(CCCc4cc(O)no4)C[C@H]3O)c1)OCCO2 [Compound 2]
[1]
  % metabolised compound after 60 minutes: 0%
[2]
  IC50: 0.00871 µM

## N#Cc1cc2c(c(C(=O)NC[C@@H]3CCN(CCCc4cc(O)no4)C[C@H]3O)c1)OCCO2 [Compound 3]
[2]
  IC50: 0.148 µM

## COc1ccc(C(=O)NCC2CCN(CCCCn3ccc(O)n3)CC2OC)c2c1OCCO2 (centres unmarked) [Compound 4]
[1]
  % metabolised compound after 60 minutes: 11%
[2]
  IC50: 0.0115 µM

## COc1ccc(C(=O)NC[C@@H]2CCN(CCCc3cc(O)no3)C[C@H]2O)c2c1OCCO2 [Compound 5]
[1]
  % metabolised compound after 60 minutes: 4%
[2]
  IC50: 0.123 µM

## O=C(NC[C@@H]1CCN(CCCc2cc(O)no2)C[C@H]1O)c1cc(F)cc2c1OCCO2 [Compound 6]
[1]
  % metabolised compound after 60 minutes: 8%
[2]
  IC50: 2.75 µM

## O=C(NCC1CCN(CCCc2nnn[nH]2)CC1O)c1cc(Cl)cc2c1OCCCO2 (centres unmarked) [Compound 7]
[1]
  % metabolised compound after 60 minutes: 5%
[2]
  IC50: 0.0316 µM

## O=C(NC[C@@H]1CCN(CCCCc2nnn[nH]2)C[C@H]1O)c1cc(Cl)cc2c1OCCCO2 [Compound 8]
[1]
  % metabolised compound after 60 minutes: 2.5%
[2]
  IC50: 0.00724 µM

## Cc1ccc(C(=O)NC[C@@H]2CCN(CCCc3nnn[nH]3)C[C@H]2O)c2c1OCCCO2 [Compound 9]
[1]
  % metabolised compound after 60 minutes: 3%
[2]
  IC50: 0.00794 µM

## Cc1ccc(C(=O)NC[C@@H]2CCN(CCCCc3nnn[nH]3)C[C@H]2O)c2c1OCCCO2 [Compound 10]
[1]
  % metabolised compound after 60 minutes: 2%
[2]
  IC50: 0.00562 µM

## O=C(NCC1CCN(CCCCn2ccc(O)n2)CC1O)c1cc(Cl)cc2c1OCCCO2 (centres unmarked) [Compound 11]
[1]
  % metabolised compound after 60 minutes: 39%
[2]
  IC50: 0.00126 µM

## Cc1cc2c(c(C(=O)NC[C@@H]3CCN(CCCCc4nnn[nH]4)C[C@H]3O)c1)OCCCO2 [Compound 13]
[1]
  % metabolised compound after 60 minutes: 2%
[2]
  IC50: 0.0132 µM

## Cc1cc2c(c(C(=O)NC[C@@H]3CCN(CCCCn4ccc(O)n4)C[C@H]3O)c1)OCCCO2 [Compound 15]
[1]
  % metabolised compound after 60 minutes: 26%
[2]
  IC50: 0.00191 µM

## O=C(NC[C@@H]1CCN(CCCn2nn[nH]c2=O)C[C@H]1O)c1cc(Cl)cc2c1OCCCO2 [Compound 16]
[1]
  % metabolised compound after 60 minutes: 0.5%
[2]
  IC50: 0.0182 µM

## Cc1cc2c(c(C(=O)NC[C@@H]3CCN(CCc4nnn[nH]4)C[C@H]3O)c1)OCCCO2 [Compound 19]
[1]
  % metabolised compound after 60 minutes: 1%
[2]
  IC50: 0.0468 µM
other
  melting point: > 125 °C

## O=C(NC[C@@H]1CCN(CCc2nnn[nH]2)C[C@H]1O)c1cc(Cl)cc2c1OCCCO2 [Compound 20]
[1]
  % metabolised compound after 60 minutes: 0%
[2]
  IC50: 0.0646 µM

## Cc1ccc(C(=O)NC[C@@H]2CCN(CCc3nnn[nH]3)C[C@H]2O)c2c1OCCCO2 [Compound 22]
[1]
  % metabolised compound after 60 minutes: 4.5%
[2]
  IC50: 0.00955 µM

## Cc1cc2c(c(C(=O)NC[C@@H]3CCN(CCCc4cc(O)no4)C[C@H]3O)c1)OCCCO2 [Compound 23]
[1]
  % metabolised compound after 60 minutes: 6%
[2]
  IC50: 0.0166 µM

## Cc1cc2c(c(C(=O)NCC3CCN(CCCN4CC(=O)NC4=O)CC3O)c1)OCCCO2 (centres unmarked) [Compound 24]
[1]
  % metabolised compound after 60 minutes: 16%
[2]
  IC50: 0.00708 µM

## COC1CN(CCCCn2ccc(O)n2)CCC1CNC(=O)c1cc(C#N)cc2c1OCCCO2 (centres unmarked) [Compound 25]
[1]
  % metabolised compound after 60 minutes: 55%
[2]
  IC50: 0.0339 µM

## Cc1ccc(C(=O)NC[C@@H]2CCN(CCCc3cc(O)no3)C[C@H]2O)c2c1OCCCO2 [Compound 26]
[1]
  % metabolised compound after 60 minutes: 3%
[2]
  IC50: 0.0166 µM

## O=C(NC[C@@H]1CCN(CCCc2cc(O)no2)C[C@H]1O)c1cc(Cl)cc2c1OCCCO2 [Compound 27]
[1]
  % metabolised compound after 60 minutes: 12%
[2]
  IC50: 0.0102 µM

## O=C(NCC1CCN(CCCCn2ccc(O)n2)CC1O)c1cc(Cl)c(Br)c2c1OCCCO2 (centres unmarked) [Compound 28]
[1]
  % metabolised compound after 60 minutes: 53%
[2]
  IC50: 0.00117 µM

## O=C(NCC1CCN(CCCCn2ccc(O)n2)CC1O)c1cc(Cl)c(Cl)c2c1OCCCO2 (centres unmarked) [Compound 29]
[1]
  % metabolised compound after 60 minutes: 50%
[2]
  IC50: 0.000871 µM

## Cc1cc2c(c(C(=O)NC[C@@H]3CCN(CCCN4C(=O)CNC4=O)C[C@H]3O)c1)OCCCO2 [Compound 31]
[1]
  % metabolised compound after 60 minutes: 12%
[2]
  IC50: 0.00148 µM

## COC1CN(CCCCn2ccc(O)n2)CCC1CNC(=O)c1cc(Cl)c(Cl)c2c1OCCCO2 (centres unmarked) [Compound 32]
[2]
  IC50: 0.000759 µM

## N#Cc1cc2c(c(C(=O)NC[C@@H]3CCN(CCCCn4ccc(O)n4)C[C@H]3O)c1)OCCCO2 [Compound 34]
[1]
  % metabolised compound after 60 minutes: 11%
[2]
  IC50: 0.00389 µM

## COc1ccc(C(=O)NC[C@@H]2CCN(CCCc3cc(O)no3)C[C@H]2O)c2c1OCCCO2 [Compound 35]
[2]
  IC50: 0.0832 µM

## O=C(NC[C@@H]1CCN(CCCc2cc(O)no2)C[C@H]1O)c1cc(F)cc2c1OCCCO2 [Compound 36]
[1]
  % metabolised compound after 60 minutes: 10%
[2]
  IC50: 0.0141 µM

## O=C(NC[C@@H]1CCN(CCCc2cc(O)no2)C[C@H]1O)c1cccc2c1OCCCO2 [Compound 37]
[1]
  % metabolised compound after 60 minutes: 1%
[2]
  IC50: 0.0178 µM

## Cc1cc2c(c(C(=O)NC[C@@H]3CCN(CCCCN4CCOCC4)C[C@H]3O)c1)OCCCO2 [Compound 38]
[1]
  % metabolised compound after 60 minutes: 18%
[2]
  IC50: 0.00105 µM

## COC1CN(CCCc2cc(O)no2)CCC1CNC(=O)c1cc(Cl)cc2c1OCCCO2 (centres unmarked) [Compound 39]
[1]
  % metabolised compound after 60 minutes: 17%
[2]
  IC50: 0.0229 µM

## COc1ccc(C(=O)NC[C@@H]2CCN(CCCCN3CCOCC3)C[C@H]2O)c2c1OCCCO2 [Compound 42]
[1]
  % metabolised compound after 60 minutes: 0%
[2]
  IC50: 0.00407 µM

## COc1ccc(C(=O)NCC2CCN(CCCc3cc(O)no3)CC2OC)c2c1OCCCO2 (centres unmarked) [Compound 44]
[1]
  % metabolised compound after 60 minutes: 3%
[2]
  IC50: 0.372 µM

## COC1CN(CCCc2cc(O)no2)CCC1CNC(=O)c1cc(C)cc2c1OCCCO2 (centres unmarked) [Compound 45]
[1]
  % metabolised compound after 60 minutes: 6%
[2]
  IC50: 0.132 µM
